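Exposure lasted 48 hours, with cells grown in 96-well plates and compounds tested at five concentrations. GI50 = concentration required for 50% inhibition of growth. TGI denotes the concentration required for complete inhibition of growth.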
Legend:
Assay in all cases: DTP human tumour cell line panel, 48 h
HCT-116 colon = test system: HCT-116 colon
HCT-15 colon = test system: HCT-15 colon
HL-60(TB) leukemia = test system: HL-60(TB) leukemia
MOLT-4 leukemia = test system: MOLT-4 leukemia
NCI-H460 lung = test system: NCI-H460 lung
OVCAR-8 ovarian = test system: OVCAR-8 ovarian
SF-295 CNS = test system: SF-295 CNS
SK-OV-3 ovarian = test system: SK-OV-3 ovarian
SN12C renal = test system: SN12C renal
SK-MEL-28 melanoma = test system: SK-MEL-28 melanoma

| SMILES | GI50 (HCT-116 colon) [µM] | TGI (HCT-116 colon) [µM] | GI50 (HCT-15 colon) [µM] | TGI (HCT-15 colon) [µM] | GI50 (HL-60(TB) leukemia) [µM] | TGI (HL-60(TB) leukemia) [µM] | GI50 (MOLT-4 leukemia) [µM] | TGI (MOLT-4 leukemia) [µM] | GI50 (NCI-H460 lung) [µM] | TGI (NCI-H460 lung) [µM] | GI50 (OVCAR-8 ovarian) [µM] | TGI (OVCAR-8 ovarian) [µM] | GI50 (SF-295 CNS) [µM] | TGI (SF-295 CNS) [µM] | GI50 (SK-OV-3 ovarian) [µM] | TGI (SK-OV-3 ovarian) [µM] | GI50 (SN12C renal) [µM] | TGI (SN12C renal) [µM] | GI50 (SK-MEL-28 melanoma) [µM] | TGI (SK-MEL-28 melanoma) [µM] |
| --- | --- | --- | --- | --- | --- | --- | --- | --- | --- | --- | --- | --- | --- | --- | --- | --- | --- | --- | --- | --- |
| COc1cc(N2C(=O)[C@H](c3ccccc3)C2c2ccc(SC)cc2)cc(OC)c1OC (stereo partly drawn) | 0.0317 | 1.17 | 0.034 | > 100 | 0.023 | 0.0666 | 0.04 | > 100 | 0.0346 | > 100 | 0.0388 | > 100 | 0.0352 | 6.94 | 0.0676 | > 100 | 0.05 | > 100 |  |  |
| CC(C)(C)CC(C)(C)c1ccc(O)c(Cc2ccc(Cl)cc2Cl)c1 | 1.66 | 3.16 | 1.74 | 3.18 | 2.01 | 3.72 | 1.66 | 3.44 | 1.62 | 2.97 | 1.61 | 2.96 | 1.62 | 2.98 | 1.5 | 2.82 | 1.47 | 2.79 | 1.61 | 2.96 |
| O=Nc1c(-c2c(O)[nH]c3cc(Br)ccc23)[nH]c2ccccc12 | 0.883 | 2.27 | 0.963 | 3.1 | 2.75 | > 32.3 | 2.99 | > 100 | 1.29 | 7.57 | 2.32 | > 100 | 1.34 | 5.57 | 0.223 | 2.94 | 0.785 | 3.86 | 2.37 | 4.79 |
| C#CC(=O)Nc1cccc2c1cc(C)n2-c1nc2c(c(NCc3ccccc3)n1)CCCC2 | 0.174 | 0.415 | 0.167 | 0.409 |  |  | 0.15 | 0.443 | 0.759 | 2.59 | 0.136 | 0.779 | 0.207 | 0.51 | 0.519 | 1.09 | 0.0706 | 0.427 | 1.22 | 2.79 |
| Oc1c(Cl)cc(Cl)cc1/C=N/Nc1nnc(N/N=C/c2cc(Cl)cc(Cl)c2O)c2ccccc12 | 0.433 | > 100 | 0.334 | > 100 |  |  | 0.363 | > 100 | 0.34 | 2.26 | 0.406 | > 100 |  |  | 0.563 | > 81.7 | 0.543 | > 100 | 0.622 | > 100 |
| Cc1cc(N2CCCCC2)nc(NC2CCCC(Nc3ccnc4cc(Cl)ccc34)C2)n1 (stereo not drawn) | 1.02 | 2.21 | 0.825 | 2.17 |  |  | 1.21 | 3.7 | 1.39 | 2.86 | 1.73 | 3.27 | 1.52 | 2.92 | 1.65 | 3.17 |  |  | 1.8 | 3.39 |
